Assay results as given in patent US11109593B2, “Isoxazolin-5-one derivative and herbicide containing same as active ingredient” (HOKKO CHEMICAL INDUSTRY CO., LTD., priority 2017, dated 2021).

Legend:
Type in all cases: in vivo
southern crabgrass [1] = assay: Test Example 4: herbicidal effect test by treatment of leave and stem in dry field farming (seven days after seeding); conditions: 120 g/10a active ingredient; emulsion sprayed seven days after seeding; evaluated 14 days after treatment
Method in brief: (§1)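 Duplicate pots were scored 14 days post-spray by dry weight, herbicidal rate = {1 − treated/untreated average dry weight} × 100. The water-diluted emulsion, equivalent to 120 g active ingredient per 10 ares in 100 L, was applied seven days after sowing 20 seeds each into the upper 1 cm of alluvial soil.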

Echinochloa crus-galli [2] = assay: as above; conditions: 120 g/10a active ingredient; emulsion sprayed seven days after seeding; evaluated 14 days after treatment
Method in brief: as §1

Chenopodium album [3] = assay: as above; conditions: 120 g/10a active ingredient; emulsion sprayed seven days after seeding; evaluated 14 days after treatment
Method in brief: as §1

Amaranthus viridis [4] = assay: as above; conditions: 120 g/10a active ingredient; emulsion sprayed seven days after seeding; evaluated 14 days after treatment
Method in brief: as §1

Echinochloa crus-galli [5] = assay: Test Example 2: herbicidal effect test by treatment during growing period in paddy rice cultivation (seven days after seeding); conditions: 120 g/10a active ingredient, assessed 14 days after treatment, dry weight vs untreated area
Method in brief: (§2)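 Sow 30 seeds per species (0–1 cm) into puddled, fertilized paddy soil; keep flooded ~3 cm in greenhouse. Day 7 after seeding: drop water-diluted emulsion, 120 g a.i./10 ares. Harvest 14 d post-treatment; compare dry weight with untreated pots (duplicate).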

[6] = tested on: broad leaf weeds (Lindernia pyxidaria and Monochoria vaginalis); assay: as above; conditions: 120 g/10a active ingredient, assessed 14 days after treatment, dry weight vs untreated area
Method in brief: as §2

Scirpus juncoides [7] = assay: as above; conditions: 120 g/10a active ingredient, assessed 14 days after treatment, dry weight vs untreated area
Method in brief: as §2

southern crabgrass [8] = assay: Test Example 3: herbicidal effect test by treatment of dry field farming soil (one day after seeding); conditions: 120 g/10a active ingredient, evaluated 14 days after treatment
Method in brief: (§3)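 Weeds were seeded into the upper soil layer of alluvial field soil and, one day afterwards, the soil surface was sprayed with water-diluted emulsion delivering 120 g active ingredient per 10 ares. Mean plant dry weight relative to untreated pots after 14 days gave the herbicidal rate, tested in duplicate.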

Echinochloa crus-galli [9] = assay: as above; conditions: 120 g/10a active ingredient, evaluated 14 days after treatment
Method in brief: as §3

Chenopodium album [10] = assay: as above; conditions: 120 g/10a active ingredient, evaluated 14 days after treatment
Method in brief: as §3

Amaranthus viridis [11] = assay: as above; conditions: 120 g/10a active ingredient, evaluated 14 days after treatment
Method in brief: as §3

Echinochloa crus-galli [12] = assay: Test Example 1: herbicidal effect test by treatment of rice paddy soil (immediately after seeding); conditions: 120 g/10a active ingredient, dry weight vs untreated area, 14 days after treatment
Method in brief: (§4)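 Paddy soil in pots with compound fertilizer, puddled; 30 seeds per species sown at 0–1 cm, flooded ~3 cm, greenhouse. Water-diluted emulsions dropped onto water immediately after seeding at 120 g active ingredient per 10 ares, duplicate. Herbicidal rate (%) from plant dry weight versus untreated, 14 days after treatment.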

[13] = tested on: broad leaf weeds (Lindernia pyxidaria and Monochoria vaginalis); assay: as above; conditions: 120 g/10a active ingredient, dry weight vs untreated area, 14 days after treatment
Method in brief: as §4

Scirpus juncoides [14] = assay: as above; conditions: 120 g/10a active ingredient, dry weight vs untreated area, 14 days after treatment
Method in brief: as §4

Cc1c(Cc2ccccc2N(C(=O)CC(C)C)S(=O)(=O)C(F)(F)F)c(=O)on1C(C)c1ccccc1 (centres unmarked) [Compound 1-359]
herbicidal effect (herbicidal rate), southern crabgrass (southern crabgrass [1]): 90% | herbicidal effect (herbicidal rate), Echinochloa crus-galli (Echinochloa crus-galli [2]): 90% | herbicidal effect (herbicidal rate), Chenopodium album (Chenopodium album [3]): 40% | herbicidal effect (herbicidal rate), Amaranthus viridis (Amaranthus viridis [4]): 40% | Herbicidal rate (%) Echinochloa crus-galli (Echinochloa crus-galli [5]): 90% | Herbicidal rate (%) Lindernia pyxidaria [6]: 90% | Herbicidal rate (%) Monochoria vaginalis [6]: 90% | Herbicidal rate (%) Scirpus juncoides (Scirpus juncoides [7]): 90% | herbicidal rate, southern crabgrass (southern crabgrass [8]): 90% | herbicidal rate, Echinochloa crus-galli (Echinochloa crus-galli [9]): 90% | herbicidal rate, Chenopodium album (Chenopodium album [10]): 90% | herbicidal rate, Amaranthus viridis (Amaranthus viridis [11]): 90% | Herbicidal rate (%) Echinochloa crus-galli (Echinochloa crus-galli [12]): 90% | Herbicidal rate (%) Lindernia pyxidaria [13]: 90% | Herbicidal rate (%) Monochoria vaginalis [13]: 90% | Herbicidal rate (%) Scirpus juncoides (Scirpus juncoides [14]): 90%

CC(=O)N(c1ccccc1Cc1c(C)n(C(C)c2ccccc2)oc1=O)S(=O)(=O)C(F)(F)F (centres unmarked) [Compound 1-310]
herbicidal effect (herbicidal rate), southern crabgrass (southern crabgrass [1]): 90% | herbicidal effect (herbicidal rate), Echinochloa crus-galli (Echinochloa crus-galli [2]): 90% | herbicidal effect (herbicidal rate), Chenopodium album (Chenopodium album [3]): 40% | herbicidal effect (herbicidal rate), Amaranthus viridis (Amaranthus viridis [4]): 40% | Herbicidal rate (%) Echinochloa crus-galli (Echinochloa crus-galli [5]): 90% | Herbicidal rate (%) Lindernia pyxidaria [6]: 90% | Herbicidal rate (%) Monochoria vaginalis [6]: 90% | Herbicidal rate (%) Scirpus juncoides (Scirpus juncoides [7]): 90% | herbicidal rate, southern crabgrass (southern crabgrass [8]): 90% | herbicidal rate, Echinochloa crus-galli (Echinochloa crus-galli [9]): 90% | herbicidal rate, Chenopodium album (Chenopodium album [10]): 90% | herbicidal rate, Amaranthus viridis (Amaranthus viridis [11]): 90% | Herbicidal rate (%) Echinochloa crus-galli (Echinochloa crus-galli [12]): 90% | Herbicidal rate (%) Lindernia pyxidaria [13]: 90% | Herbicidal rate (%) Monochoria vaginalis [13]: 90% | Herbicidal rate (%) Scirpus juncoides (Scirpus juncoides [14]): 90%

CCCC(C)n1oc(=O)c(Cc2ccccc2N(C(=O)CC(C)C)S(=O)(=O)C(F)(F)F)c1C (centres unmarked) [Compound 1-356]
herbicidal effect (herbicidal rate), southern crabgrass (southern crabgrass [1]): 80% | herbicidal effect (herbicidal rate), Echinochloa crus-galli (Echinochloa crus-galli [2]): 90% | herbicidal effect (herbicidal rate), Chenopodium album (Chenopodium album [3]): 60% | herbicidal effect (herbicidal rate), Amaranthus viridis (Amaranthus viridis [4]): 60% | Herbicidal rate (%) Echinochloa crus-galli (Echinochloa crus-galli [5]): 100% | Herbicidal rate (%) Lindernia pyxidaria [6]: 60% | Herbicidal rate (%) Monochoria vaginalis [6]: 70% | Herbicidal rate (%) Scirpus juncoides (Scirpus juncoides [7]): 90% | herbicidal rate, southern crabgrass (southern crabgrass [8]): 90% | herbicidal rate, Echinochloa crus-galli (Echinochloa crus-galli [9]): 90% | herbicidal rate, Chenopodium album (Chenopodium album [10]): 60% | herbicidal rate, Amaranthus viridis (Amaranthus viridis [11]): 90% | Herbicidal rate (%) Echinochloa crus-galli (Echinochloa crus-galli [12]): 100% | Herbicidal rate (%) Lindernia pyxidaria [13]: 90% | Herbicidal rate (%) Monochoria vaginalis [13]: 60% | Herbicidal rate (%) Scirpus juncoides (Scirpus juncoides [14]): 90%

CCOC(=O)N(c1ccccc1Cc1c(C)n(CCSC)oc1=O)S(=O)(=O)C(F)(F)F [Compound 1-620]
herbicidal effect (herbicidal rate), southern crabgrass (southern crabgrass [1]): 90% | herbicidal effect (herbicidal rate), Echinochloa crus-galli (Echinochloa crus-galli [2]): 90% | herbicidal effect (herbicidal rate), Chenopodium album (Chenopodium album [3]): 40% | herbicidal effect (herbicidal rate), Amaranthus viridis (Amaranthus viridis [4]): 40% | Herbicidal rate (%) Echinochloa crus-galli (Echinochloa crus-galli [5]): 90% | Herbicidal rate (%) Lindernia pyxidaria [6]: 90% | Herbicidal rate (%) Monochoria vaginalis [6]: 90% | Herbicidal rate (%) Scirpus juncoides (Scirpus juncoides [7]): 90% | herbicidal rate, southern crabgrass (southern crabgrass [8]): 90% | herbicidal rate, Echinochloa crus-galli (Echinochloa crus-galli [9]): 90% | herbicidal rate, Chenopodium album (Chenopodium album [10]): 90% | herbicidal rate, Amaranthus viridis (Amaranthus viridis [11]): 90% | Herbicidal rate (%) Echinochloa crus-galli (Echinochloa crus-galli [12]): 90% | Herbicidal rate (%) Lindernia pyxidaria [13]: 90% | Herbicidal rate (%) Monochoria vaginalis [13]: 90% | Herbicidal rate (%) Scirpus juncoides (Scirpus juncoides [14]): 90%

CCC(C)n1oc(=O)c(Cc2ccccc2N(C(=O)Cc2ccccc2)S(=O)(=O)C(F)(F)F)c1C (centres unmarked) [Compound 1-504]
herbicidal effect (herbicidal rate), southern crabgrass (southern crabgrass [1]): 90% | herbicidal effect (herbicidal rate), Echinochloa crus-galli (Echinochloa crus-galli [2]): 90% | herbicidal effect (herbicidal rate), Chenopodium album (Chenopodium album [3]): 40% | herbicidal effect (herbicidal rate), Amaranthus viridis (Amaranthus viridis [4]): 40% | Herbicidal rate (%) Echinochloa crus-galli (Echinochloa crus-galli [5]): 90% | Herbicidal rate (%) Lindernia pyxidaria [6]: 90% | Herbicidal rate (%) Monochoria vaginalis [6]: 90% | Herbicidal rate (%) Scirpus juncoides (Scirpus juncoides [7]): 90% | herbicidal rate, southern crabgrass (southern crabgrass [8]): 90% | herbicidal rate, Echinochloa crus-galli (Echinochloa crus-galli [9]): 90% | herbicidal rate, Chenopodium album (Chenopodium album [10]): 90% | herbicidal rate, Amaranthus viridis (Amaranthus viridis [11]): 90% | Herbicidal rate (%) Echinochloa crus-galli (Echinochloa crus-galli [12]): 90% | Herbicidal rate (%) Lindernia pyxidaria [13]: 90% | Herbicidal rate (%) Monochoria vaginalis [13]: 90% | Herbicidal rate (%) Scirpus juncoides (Scirpus juncoides [14]): 90%

CCC(C)Cn1oc(=O)c(Cc2ccccc2N(C(=O)OCC(C)C)S(=O)(=O)C(F)(F)F)c1C (centres unmarked) [Compound 1-674]
herbicidal effect (herbicidal rate), southern crabgrass (southern crabgrass [1]): 80% | herbicidal effect (herbicidal rate), Echinochloa crus-galli (Echinochloa crus-galli [2]): 70% | herbicidal effect (herbicidal rate), Chenopodium album (Chenopodium album [3]): 50% | herbicidal effect (herbicidal rate), Amaranthus viridis (Amaranthus viridis [4]): 60% | Herbicidal rate (%) Echinochloa crus-galli (Echinochloa crus-galli [5]): 100% | Herbicidal rate (%) Lindernia pyxidaria [6]: 70% | Herbicidal rate (%) Monochoria vaginalis [6]: 90% | Herbicidal rate (%) Scirpus juncoides (Scirpus juncoides [7]): 90% | herbicidal rate, southern crabgrass (southern crabgrass [8]): 50% | herbicidal rate, Echinochloa crus-galli (Echinochloa crus-galli [9]): 80% | herbicidal rate, Chenopodium album (Chenopodium album [10]): 40% | herbicidal rate, Amaranthus viridis (Amaranthus viridis [11]): 40% | Herbicidal rate (%) Echinochloa crus-galli (Echinochloa crus-galli [12]): 100% | Herbicidal rate (%) Lindernia pyxidaria [13]: 90% | Herbicidal rate (%) Monochoria vaginalis [13]: 90% | Herbicidal rate (%) Scirpus juncoides (Scirpus juncoides [14]): 90%

CCOC(=O)N(c1ccccc1Cc1c(C)n(C(C)c2ccccc2)oc1=O)S(=O)(=O)C(F)(F)F (centres unmarked) [Compound 1-626]
herbicidal effect (herbicidal rate), southern crabgrass (southern crabgrass [1]): 90% | herbicidal effect (herbicidal rate), Echinochloa crus-galli (Echinochloa crus-galli [2]): 90% | herbicidal effect (herbicidal rate), Chenopodium album (Chenopodium album [3]): 40% | herbicidal effect (herbicidal rate), Amaranthus viridis (Amaranthus viridis [4]): 40% | Herbicidal rate (%) Echinochloa crus-galli (Echinochloa crus-galli [5]): 90% | Herbicidal rate (%) Lindernia pyxidaria [6]: 90% | Herbicidal rate (%) Monochoria vaginalis [6]: 90% | Herbicidal rate (%) Scirpus juncoides (Scirpus juncoides [7]): 90% | herbicidal rate, southern crabgrass (southern crabgrass [8]): 90% | herbicidal rate, Echinochloa crus-galli (Echinochloa crus-galli [9]): 90% | herbicidal rate, Chenopodium album (Chenopodium album [10]): 90% | herbicidal rate, Amaranthus viridis (Amaranthus viridis [11]): 90% | Herbicidal rate (%) Echinochloa crus-galli (Echinochloa crus-galli [12]): 90% | Herbicidal rate (%) Lindernia pyxidaria [13]: 90% | Herbicidal rate (%) Monochoria vaginalis [13]: 90% | Herbicidal rate (%) Scirpus juncoides (Scirpus juncoides [14]): 90%

Cc1c(Cc2cccc(Cl)c2NS(=O)(=O)C(F)(F)F)c(=O)on1C(C)C [Compound 1-33]
herbicidal effect (herbicidal rate), southern crabgrass (southern crabgrass [1]): 40% | herbicidal effect (herbicidal rate), Echinochloa crus-galli (Echinochloa crus-galli [2]): 90% | herbicidal effect (herbicidal rate), Chenopodium album (Chenopodium album [3]): 40% | herbicidal effect (herbicidal rate), Amaranthus viridis (Amaranthus viridis [4]): 0% | Herbicidal rate (%) Echinochloa crus-galli (Echinochloa crus-galli [5]): 60% | Herbicidal rate (%) Lindernia pyxidaria [6]: 60% | Herbicidal rate (%) Monochoria vaginalis [6]: 60% | Herbicidal rate (%) Scirpus juncoides (Scirpus juncoides [7]): 80% | herbicidal rate, southern crabgrass (southern crabgrass [8]): 70% | herbicidal rate, Echinochloa crus-galli (Echinochloa crus-galli [9]): 90% | herbicidal rate, Chenopodium album (Chenopodium album [10]): 40% | herbicidal rate, Amaranthus viridis (Amaranthus viridis [11]): 0% | Herbicidal rate (%) Echinochloa crus-galli (Echinochloa crus-galli [12]): 80% | Herbicidal rate (%) Lindernia pyxidaria [13]: 90% | Herbicidal rate (%) Monochoria vaginalis [13]: 90% | Herbicidal rate (%) Scirpus juncoides (Scirpus juncoides [14]): 100%
